Data reported in ChEMBL document CHEMBL3580652, “Hikiamides A-C, Cyclic Pentadepsipeptides from Fusarium sp. TAMA 456” (J Nat Prod, 2015).
Calls of active or inactive are those of the source. No cut-off for these calls is given here. Where a SMILES comes first, the peptide text is derived from it. [ ]: non-standard residue; d: D form. Hica(2S) = CC(C)C[C@H](O)C(=O)O; NMeL = CN[C@@H](CC(C)C)C(=O)O

Experiments:
ST-13 = experiment: Induction of mouse ST-13 cell differentiation assessed as increase in accumulation of lipid droplets in cytosol at 2 to 4 uM after 11 days by oil red o staining-based phase contrast microscopic analysis; format: functional
[1] = target: T1, Peroxisome proliferator-activated receptor gamma (Homo sapiens) (UniProt P37231); experiment: Agonist activity at human PPARgamma ligand binding domain fused with GAL4 DNA binding domain transfected in African green monkey COS1 cells assessed as transcriptional activation after 24 hrs by Steady-Glo luciferase reporter gene assay; format: cell-based; conditions: COS-1
T1 sequence (whole entry): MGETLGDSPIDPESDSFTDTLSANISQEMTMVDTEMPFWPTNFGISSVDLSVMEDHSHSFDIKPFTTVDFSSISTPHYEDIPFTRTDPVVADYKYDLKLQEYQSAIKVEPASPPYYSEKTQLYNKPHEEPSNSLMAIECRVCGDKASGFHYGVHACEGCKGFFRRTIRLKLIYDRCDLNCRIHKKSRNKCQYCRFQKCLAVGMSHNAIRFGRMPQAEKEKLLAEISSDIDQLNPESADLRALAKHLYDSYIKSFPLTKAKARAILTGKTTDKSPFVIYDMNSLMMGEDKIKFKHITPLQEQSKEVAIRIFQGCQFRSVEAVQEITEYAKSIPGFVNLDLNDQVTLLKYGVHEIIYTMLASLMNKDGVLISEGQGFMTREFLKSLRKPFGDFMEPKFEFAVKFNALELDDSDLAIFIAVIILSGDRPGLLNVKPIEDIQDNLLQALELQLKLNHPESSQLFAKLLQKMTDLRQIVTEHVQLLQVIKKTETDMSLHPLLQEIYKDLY

[2] = Upregulation of adiponectin mRNA expression in mouse ST-13 cells at 2 uM by RT-qPCR analysis relative to control; format: functional, cell-based

SMILES	Activity (ST-13)	Activity [1]	fold change (FC) [2]
CC(C)C[C@@H]1NC(=O)[C@H](C(C)C)NC(=O)[C@H](CC(C)C)OC(=O)[C@H](Cc2ccccc2)NC(=O)[C@H](Cc2ccccc2)NC1=O (cyclo(FF[Hica(2S)]VL))	Active	Dose-dependent effect	5.2
CC(C)C[C@@H]1OC(=O)[C@H](Cc2ccccc2)NC(=O)[C@H](Cc2ccccc2)NC(=O)[C@H](CC(C)C)N(C)C(=O)[C@H](C(C)C)NC1=O (cyclo(FF[Hica(2S)]V[NMeL]))	Active	Dose-dependent effect	13.3
CC(C)C[C@@H]1OC(=O)[C@H](Cc2ccccc2)NC(=O)[C@H](Cc2c[nH]c3ccccc23)NC(=O)[C@H](CC(C)C)N(C)C(=O)[C@H](C(C)C)NC1=O (cyclo(F[Hica(2S)]V[NMeL]W))	Active	Dose-dependent effect	10
